BindingDB's records for doi:10.1021/jm020901d (Eli Lilly, 2002)

Molecular target: T1, Glutamate racemase (Limosilactobacillus fermentum, UniProt Q03469)
T1 sequence (Q03469 whole entry): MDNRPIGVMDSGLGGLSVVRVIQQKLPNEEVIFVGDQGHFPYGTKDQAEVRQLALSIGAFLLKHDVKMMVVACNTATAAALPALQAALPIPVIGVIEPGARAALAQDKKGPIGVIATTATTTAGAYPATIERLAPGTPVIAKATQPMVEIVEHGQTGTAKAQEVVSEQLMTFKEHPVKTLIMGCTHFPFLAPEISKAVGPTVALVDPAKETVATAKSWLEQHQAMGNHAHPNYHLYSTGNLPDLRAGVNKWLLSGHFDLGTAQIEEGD
Assay: Binding affinity against Glutamate Racemase

N[C@H](C[C@H](Cc1ccc2ccccc2c1)C(=O)O)C(=O)O [2-Amino-4-naphthalen-2-ylmethyl-pentanedioic acid]
Ki: 16 nM
